This assay has as its system P. falciparum 3D7 growth, pLDH absorbance. The assay is described as follows: P. falciparum 3D7 growth inhibition, dose response, strain 3D7 (AID 2305).

The values that follow come from PubChem BioAssay AID2305 (GlaxoSmithKline (GSK), 2010).

By IC50 is commonly meant the concentration that inhibits the measured activity by half. A higher IC50 goes with weaker potency.

Molecules are shown by their SMILES.

`Cc1cccc2[nH]c(-c3ccc(-c4ccc(CNCc5ccc(CN)cc5)cc4)cc3)nc12` yielded an IC50 of 720 nM. This lies in the sub-micromolar range.

`CC1(C)N=C(N)N=C(N)N1c1ccc2ccccc2c1` displayed an IC50 of 50 nM. This IC50 lies about 14-fold lower than the previous one.

Compound `CC1(C)[C@H]2C=C(CN3CCC(NC(=O)Nc4ccc(Cl)c(Cl)c4)CC3)[C@@H]1CC2` yielded an IC50 of 760 nM.

`Cc1cc(CN2CC[C@H](NC(=O)c3ccc(Cl)c(Cl)c3)C2)ccc1OCCN1CCNCC1` yielded an IC50 of 940 nM.

Compound `COc1ccc(CNCc2ccccc2)cc1-c1cccc(S(=O)(=O)NCCN2CCCC2)c1` gave a 50% inhibitory concentration (IC50) of 790 nM. This IC50 and that of the compound before are within 1.5-fold of each other.

`Cc1cc(-c2ccc3occ(CCN)c3c2)cnc1N` yielded an IC50 of 880 nM. The IC50 values of the last two compounds are within 1.5-fold of each other.

As for `CCOc1ccc(-n2nc3c(Cl)nnc(-c4ccccc4)c3c2-c2ccccc2)cc1`, the IC50 was 230 nM.

Consider `O=C(Nc1cccc(-c2nn3ccccc3c2-c2ccnc(Nc3ccccc3)n2)c1)c1c(F)cccc1F`, for which the IC50 was 720 nM.

Take `Cc1cc(NC(=O)[C@H](CC2CCCCC2)Nc2ccc(C#N)c3ccccc23)ccc1F`: the IC50 was 680 nM.

In turn, `COc1ccc(NC(=O)C2c3ccccc3C(=O)N(C3CCCC3)C2c2cccs2)c(OC)c1` (centres undefined) displayed an IC50 of 1480 nM.

In the case of `Oc1ccc(CCNc2nc(NCCCOc3cc(CN4CCCCC4)ccc3F)nc(N3CCNCC3)n2)cc1`, the IC50 stood at 1760 nM.

In the case of `CC(C)(C)c1ccc(-c2cc(C(=O)N[C@@H](CO)C(=O)O)on2)cc1` (tested in a mixture with another compound), the 50% inhibitory concentration (IC50) is 970 nM. Against the preceding compound, the IC50 is about 1.8-fold lower.

For the compound `CC(=O)Nc1ccc(OCCCN(Cc2ccccc2C(F)(F)F)c2ccc(C(F)(F)F)c(C#N)c2)c(Cl)c1`, the IC50 is 1450 nM.

`CS(=O)(=O)CCNCc1ccc(-c2ccc3c(Nc4ccc(Oc5ccccn5)cc4)ccnc3c2)o1` gave an IC50 of 710 nM.

`O=C(Nc1cncc(NC(=O)c2ccc(Cl)c(Cl)c2)c1)c1ccc(Cl)c(Cl)c1` showed an IC50 of 730 nM.

`CCOc1ncccc1CN1CCC(N2CCc3cc(NC(=O)c4cc(C)on4)ccc32)C1` (centres undefined) yielded an IC50 of 310 nM.

Compound `Cc1cccc2[nH]c(-c3ccc(-c4cccc(CNCCN5CCNCC5)c4)cc3)nc12` yielded an IC50 of 1230 nM.

Take `O=C(Nc1ccccc1N1CCOCC1)c1ncoc1-c1ccccc1C(F)(F)F`: the IC50 worked out at 1060 nM.

For the compound `COc1cc(Nc2nccc(N3CCC(NC(=O)c4cccc(NC(C)=O)c4)C3)n2)cc(OC)c1OC` (centres undefined), the IC50 came out at 830 nM. The IC50 values of the last two compounds are within 1.5-fold of each other.

Compound `Cc1cc(-c2ccc(O)c(CNC3CCCCC3)c2)cnc1N` showed an IC50 of 200 nM.

With `CN1CCC(NCc2cccc(-c3cnc(NCc4ccccc4)nc3)c2)CC1`, the 50% inhibitory concentration (IC50) worked out at 970 nM. Against the preceding compound, the IC50 is about 4.8-fold higher.

In the case of `CCCC[C@@H](C(=O)NCc1ccccc1C(F)(F)F)N1C(=O)CCC1C(=O)Nc1ccc([N+](=O)[O-])cc1` (some centres undefined), the IC50 came to 850 nM.

`c1ccc(-n2cncn2)cc1`: the concentration for half-maximal inhibition (IC50) came out at 590 nM. The IC50 values of the last two compounds are within 1.5-fold of each other.

Compound `COc1ccc(Nc2c3ccc(Cl)cc3nc3ccc(OC)cc23)cc1` showed a concentration for half-maximal inhibition (IC50) of 440 nM.

For the compound `CCC(CC)N1C(=O)C(c2ccccc2)(c2ccccc2)N=C1N`, the IC50 was determined as 800 nM.

For the compound `O=C(Nc1cccc(OC2CCN(Cc3ccc(F)cc3)CC2)c1)c1ccc(C(F)(F)F)cc1`, the IC50 came out at 950 nM. The IC50 values of the last two compounds are within 1.5-fold of each other.

In turn, `CCCCCCCCCCS(=O)(=O)N[C@H](COCc1cccc(Oc2ccccc2)c1)COP(=O)(O)OC` displayed an IC50 of 1020 nM.

`CCCCCN1CCCN(Cc2cccc(NC(=O)c3ccc4ccccc4c3)c2)CC1` yielded an IC50 of 1220 nM.

In turn, `CN1CCN(c2ccnc3cc4c(cc23)N(C(=O)Nc2ccc(-c3ccncc3)c3ccccc23)CC4)CC1` returned an IC50 of 950 nM.

Turning to `OC1CCN(c2cc(-c3ccccn3)nc(-c3ccccn3)n2)CC1`, the IC50 amounted to 1050 nM. The IC50 values of the last two compounds are within 1.5-fold of each other.

Consider `COc1ccc2ccccc2c1CON1C(N)=NC(N)=NC1(C)C`, for which the IC50 is 30 nM.

With `OC(CNCc1ccccc1OCc1ccccc1)c1cc(Br)cs1` (centres undefined), the IC50 was found to be 720 nM. Compared with the last compound, the IC50 is about 24-fold higher.

Take `COc1ccc(OCc2ccccn2)c(C2CCN(CCCCNC(=O)c3ccc(NC(=O)c4ccc(Cl)cc4)cc3)CC2)c1`: the IC50 worked out at 760 nM.

On to `CCc1c(C)nc(-n2nc(C)cc2NC(=O)C(CC)c2ccccc2)[nH]c1=O` (centres undefined), for which the IC50 amounted to 710 nM. The IC50 values of the last two compounds are within 1.5-fold of each other.

In the case of `CCc1ccc(CN2CCC(CNC(=O)c3cc(-c4cccc(F)c4)cs3)C2)cc1` (centres undefined), the half-inhibitory concentration (IC50) was determined as 1360 nM.

Take `O=C(Nc1cccc(-c2ccc(-c3nc4ccccc4[nH]3)cc2)c1)c1csnn1`: the IC50 is 1070 nM.

For the compound `COc1ccc(CC2(c3ccc(F)cc3)N=C(N)N(CCCc3ccc4c(c3)OCO4)C2=O)cc1` (centres undefined), the half-inhibitory concentration (IC50) amounted to 740 nM.

`Cc1ccc2nc(C)n(C3CCN(C(=O)Cc4ccccc4C)CC3)c2c1` came in with an IC50 of 240 nM.

With `OCC1CCN(Cc2ccc(-c3ccc(-c4nc5ccc(F)cc5[nH]4)s3)cc2)CC1`, the 50% inhibitory concentration (IC50) amounted to 850 nM.

The compound `NCc1ccc(-c2cccc(CNC3CCN(Cc4ccccc4)CC3)c2)cc1` returned an IC50 of 670 nM.

Consider `O=C(NCCCN1CCN(c2cccc(Cl)c2)CC1)c1ccc(-c2nc3cc(Cl)c(Cl)cc3[nH]2)c(F)c1`, for which the IC50 was determined as 830 nM.

Turning to `CN1CCN(CCc2ccc(N=Cc3c(=O)[nH]c4ccc5[nH]cccc5c34)cc2)CC1`, the 50% inhibitory concentration (IC50) amounted to 330 nM.

For `COc1ccc(-c2onc(C(F)(F)F)c2-c2ccc(Br)cc2)c(O)c1`, the 50% inhibitory concentration (IC50) is 240 nM.

Regarding `CCNc1cc(C)nc(Nc2ccc(C)cc2)n1`, the IC50 was determined as 730 nM.

`CCNC(=O)Nc1ccc(-c2cnc(N)c(-c3nc4ccc(OC)cc4[nH]3)c2)cc1` had an IC50 of 500 nM. This IC50 and that of the compound before are within 1.5-fold of each other.

Consider `COc1cc(NC(=O)/C=C/c2ccc(-c3ccccc3)cc2)ccc1OCCN(C(C)C)C(C)C`, for which the half-maximal inhibitory concentration (IC50) was 840 nM.

Turning to `O=C(c1cccc(-c2cccc(-c3nc4ccc(F)cc4[nH]3)c2)c1)N1CCCCC1CN1CCC(O)C1` (centres undefined), the half-maximal inhibitory concentration (IC50) was determined as 880 nM.

`Cc1cc(=O)oc2c1ccc1oc(C(O)c3ccc(Cl)cc3)c(C)c12` (centres undefined) displayed an IC50 of 130 nM.

`CCC[C@@H]([C@@H](CC1CCCCC1)C(=O)N[C@H](C(=O)Nc1nccs1)[C@@H](C)OCc1ccccc1)N(O)C=O` came in with a half-inhibitory concentration (IC50) of 80 nM.

Compound `O=C(Nc1cccc(C(F)(F)F)c1)c1ccc(S(=O)(=O)NCC2CCCN2CC2CCCCC2)cc1` (centres undefined) returned an IC50 of 750 nM.

Consider `CCCNCc1ccc(-c2ccc(CN(CCOC)C(=O)/C=C/c3ccccc3C)cc2)nc1`, for which the IC50 came to 900 nM.

Take `CC(=NNC(=S)NCCc1ccccn1)c1ccccn1`: the half-maximal inhibitory concentration (IC50) came to 320 nM.

In turn, `CC(Oc1ccc(Cl)cc1)C(=O)N(C)C1CCN(CCCCCNC(=O)/C=C/c2ccc(Cl)c(Cl)c2)CC1` (centres undefined) returned an IC50 of 960 nM.

Consider `N[C@@H](Cc1cc(I)c(Oc2ccc(O)c(C(=O)O)c2)c(I)c1)C(=O)O`, for which the concentration for half-maximal inhibition (IC50) was found to be 990 nM. The IC50 values of the last two compounds are within 1.5-fold of each other.

For `O=C(O)CCc1ccc(-c2c[nH]c3ncc(-c4ccc5ncccc5c4)cc23)cc1`, the IC50 was 300 nM.

In turn, `O=C(NCCCN1CCCCC1)c1ccc(Nc2nccc(Nc3ccc(Oc4ccccc4)cc3)n2)cc1` came in with an IC50 of 630 nM. Compared with the last compound, the IC50 is about 2.1-fold higher.

For the compound `CCOc1c(CCNCCCCNCCc2ccc3ccccc3c2OCC)ccc2ccccc12`, the IC50 turned out to be 600 nM.

On to `Cc1nc(NCc2ccccc2)cc(Nc2cc(NCc3ccccc3)nc(C)n2)n1`, for which the IC50 amounted to 970 nM.

Take `O=C(Nc1ccc(OC2CCN(Cc3ccsc3)CC2)c(Cl)c1)c1ccc(F)cc1`: the IC50 worked out at 650 nM.

`Cc1ccc(O)cc1Nc1ccnc2ccc(C(C)(C)C)cc12` yielded an IC50 of 1250 nM.

The compound `COc1ccc2nc(C)cc(NC3Cc4ccccc4C3)c2c1` came in with an IC50 of 840 nM. The IC50 values of the last two compounds are within 1.5-fold of each other.

The compound `CCc1ccc(NC(=O)C=NN=C(N)N)cc1` returned an IC50 of 900 nM.

`COc1ccc(-c2cc(-c3ccc(S(C)(=O)=O)cc3)cnc2N)cn1` showed a half-inhibitory concentration (IC50) of 190 nM.

Consider `CCN(CCCN1CCCCC1)c1cc(C)nc(Nc2cccc(C(F)(F)F)c2)n1`, for which the IC50 came to 290 nM. Against the preceding compound, the IC50 is about 1.5-fold higher.
